Source: patent US20250179059A1 (The Regents of the University of California, priority 2021, published 2025)
pIC50: −log10 of the molar value.

Key:
[1] = biological target: T1, human BRD4 bromodomain II (Homo sapiens, UniProt O60885); assay: Bromodomain binding assay (AlphaScreen), BRD4 BDII; details: AlphaScreen assay, Table C2; read-out: BRD4 BDII IC50
T1 construct: human BRD4 bromodomain II [based on Genbank NM_058243, residues 349-460]; host or cells: E. coli
Outline: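 Tagged BRD4 BDI or BDII constructs, expressed in E. coli, competed against a K5/K8/K12/K16-acetylated biotin-H4 peptide. Proximity signal between bead pairs after room-temperature incubations gave concentration-response curves, from which IC50 was derived.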

[2] = test system: human SKM-1 acute myeloid leukemia cells; assay: SKM-1 antiproliferation cell-based assay (ATPlite); details: Homo sapiens, SKM-1, 96 h, SKM-1 antiproliferation assay, 4 days, Table C2
Outline: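 Log-phase cells in RPMI 1640/15% FBS were seeded at 34722 cells/mL and exposed for 4 days to nine-concentration DMSO serial dilutions in triplicate. Viability was read as ATP luminescence (ATPlite 1step), and IC50 values came from variable-slope non-linear regression.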

| pIC50 [1] | GI50 [2] [nM] | SMILES |
| --- | --- | --- |
| 9.00 to 11.00 | 0.3 to 30 | CC(C)N1CCN(c2cc(-c3cc(F)cc(-c4ccc(-n5ccn(C)c5=O)c(Cl)c4)c3O)cn3ccnc23)CC1 [Example 670, 1-(3-chloro-5′-fluoro-2′-hydroxy-3′-(8-(4-isopropylpiperazin-1-yl)imidazo[1,2-a]pyridin-6-yl)-[1,1′-biphenyl]-4-yl)-3-methyl-1H-imidazol-2(3H)-one] |
| 9.00 to 11.00 | 0.3 to 30 | C[C@@H]1CN(c2cccc(-c3cc(F)cc(-c4ccc(-n5ccn(C)c5=O)c(Cl)c4)c3O)c2)CCN1 [Example 671, (R)-1-(3-chloro-5′-fluoro-2′-hydroxy-3″-(3-methylpiperazin-1-yl)-[1,1′:3′,1″-terphenyl]-4-yl)-3-methyl-1H-imidazol-2(3H)-one] |
| 9.00 to 11.00 | 0.3 to 30 | CC(C)N1CCN(c2cc(-c3cc(F)cc(-c4ccc(-n5ccn(C)c5=O)c(Cl)c4)c3O)cc3c2cnn3C)CC1 [Example 672, 1-(3-chloro-5′-fluoro-2′-hydroxy-3′-(4-(4-isopropylpiperazin-1-yl)-1-methyl-1H-indazol-6-yl)-[1,1′-biphenyl]-4-yl)-3-methyl-1H-imidazol-2(3H)-one] |
| 9.00 to 11.00 | 30 to 300 | C[C@@H]1CN(c2cc(-c3cc(F)cc(-c4ccc(-n5ccn(C)c5=O)c(Cl)c4)c3O)ccn2)CCO1 [Example 673, (R)-1-(3-chloro-5′-fluoro-2′-hydroxy-3′-(2-(2-methylmorpholino)pyridin-4-yl)-[1,1′-biphenyl]-4-yl)-3-methyl-1H-imidazol-2(3H)-one] |
| 9.00 to 11.00 | 30 to 300 | Cn1ccn(-c2ccc(-c3cc(F)cc(-c4ccnc(N5CCC6(CCO6)C5)c4)c3O)cc2Cl)c1=O (stereo not drawn) [Example 674, 1-(3′-(2-(1-oxa-6-azaspiro[3.4]octan-6-yl)pyridin-4-yl)-3-chloro-5′-fluoro-2′-hydroxy-[1,1′-biphenyl]-4-yl)-3-methyl-1H-imidazol-2(3H)-one] |
| 9.00 to 11.00 | 30 to 300 | Cn1ccn(-c2ccc(-c3cc(F)cc(-c4ccnc(N5CCN6C(=O)OCCC6C5)c4)c3O)cc2Cl)c1=O (stereo not drawn) [Example 675, 2-(4-(3′-chloro-5-fluoro-2-hydroxy-4′-(3-methyl-2-oxo-2,3-dihydro-1H-imidazol-1-yl)-[1,1′-biphenyl]-3-yl)pyridin-2-yl)hexahydropyrazino[1,2-c][1,3]oxazin-6(2H)-one] |
| 9.00 to 11.00 | 0.3 to 30 | COCCC1CN(c2cc(-c3cc(F)cc(-c4ccc(-n5ccn(C)c5=O)c(Cl)c4)c3O)ccn2)CCN1 (stereo not drawn) [Example 676, 1-(3-chloro-5′-fluoro-2′-hydroxy-3′-(2-(3-(2-methoxyethyl)piperazin-1-yl)pyridin-4-yl)-[1,1′-biphenyl]-4-yl)-3-methyl-1H-imidazol-2(3H)-one] |
| 9.00 to 11.00 | 0.3 to 30 | C[C@@H]1CN(c2cc(-c3cc(F)cc(-c4ccc(-n5ccn(C)c5=O)c(Cl)c4)c3O)ccc2F)CCN1 [Example 677, (R)-1-(3-chloro-4″,5′-difluoro-2′-hydroxy-3″-(3-methylpiperazin-1-yl)-[1,1′:3′,1″-terphenyl]-4-yl)-3-methyl-1H-imidazol-2(3H)-one] |
| 9.00 to 11.00 | 0.3 to 30 | CC(C)N1CCCN(c2cc(-c3cc(F)cc(-c4ccc(-n5ccn(C)c5=O)c(Cl)c4)c3O)ccn2)CC1 [Example 678, 1-(3-chloro-5′-fluoro-2′-hydroxy-3′-(2-(4-isopropyl-1,4-diazepan-1-yl)pyridin-4-yl)-[1,1′-biphenyl]-4-yl)-3-methyl-1H-imidazol-2(3H)-one] |
| 8.00 to 9.00 | 30 to 300 | COC(=O)CC1CN(c2cc(-c3cc(F)cc(-c4ccc(-n5ccn(C)c5=O)c(Cl)c4)c3O)ccn2)CCN1 (stereo not drawn) [Example 679, methyl 2-(4-(4-(3′-chloro-5-fluoro-2-hydroxy-4′-(3-methyl-2-oxo-2,3-dihydro-1H-imidazol-1-yl)-[1,1′-biphenyl]-3-yl)pyridin-2-yl)piperazin-2-yl)acetate] |
| 9.00 to 11.00 | 30 to 300 | Cn1ccn(-c2ccc(-c3cc(F)cc(-c4ccnc(N5CCN[C@H](CN)C5)c4)c3O)cc2Cl)c1=O [Example 680, (R)-1-(3′-(2-(3-(aminomethyl)piperazin-l-yl)pyridin-4-yl)-3-chloro-5′-fluoro-2′-hydroxy-[1,1′-biphenyl]-4-yl)-3-methyl-1H-imidazol-2(3H)-one] |
| 9.00 to 11.00 | 0.3 to 30 | Cn1ccn(-c2ccc(-c3cc(F)cc(-c4ccnc(N5CCN(CCC6CC6)CC5)c4)c3O)cc2Cl)c1=O [Example 681, 1-(3-chloro-3′-(2-(4-(2-cyclopropylethyl)piperazin-1-yl)pyridin-4-yl)-5′-fluoro-2′-hydroxy-[1,1′-biphenyl]-4-yl)-3-methyl-1H-imidazol-2(3H)-one] |
| 9.00 to 11.00 | 0.3 to 30 | CC(C)CN1CCN(c2cc(-c3cc(F)cc(-c4ccc(-n5ccn(C)c5=O)c(Cl)c4)c3O)ccn2)CC1 [Example 682, 1-(3-chloro-5′-fluoro-2′-hydroxy-3′-(2-(4-isobutylpiperazin-1-yl)pyridin-4-yl)-[1,1′-biphenyl]-4-yl)-3-methyl-1H-imidazol-2(3H)-one] |
| 9.00 to 11.00 | 30 to 300 | Cn1ccn(-c2ccc(-c3cc(F)cc(-c4ccnc(N5CCC6(CCCO6)C5)c4)c3O)cc2Cl)c1=O (stereo not drawn) [Example 683, 1-(3′-(2-(1-oxa-7-azaspiro[4.4]nonan-7-yl)pyridin-4-yl)-3-chloro-5′-fluoro-2′-hydroxy-[1,1′-biphenyl]-4-yl)-3-methyl-1H-imidazol-2(3H)-one] |
| 8.00 to 9.00 | 30 to 300 | C[C@@H]1CN(c2cc(-c3cc(F)cc(-c4ccc(-n5ccn(C)c5=O)c(Cl)c4)c3O)ccn2)C[C@@H](C)O1 [Example 684, 1-(3-chloro-3′-(2-((2R,6R)-2,6-dimethylmorpholino)pyridin-4-yl)-5′-fluoro-2′-hydroxy-[1,1′-biphenyl]-4-yl)-3-methyl-1H-imidazol-2(3H)-one] |
| 9.00 to 11.00 | 0.3 to 30 | Cn1ccn(-c2ccc(-c3cc(F)cc(-c4ccnc(N5CCC(C)(O)C5)c4)c3O)cc2Cl)c1=O (stereo not drawn) [Example 685, 1-(3-chloro-5′-fluoro-2′-hydroxy-3′-(2-(3-hydroxy-3-methylpyrrolidin-1-yl)pyridin-4-yl)-[1,1′-biphenyl]-4-yl)-3-methyl-1H-imidazol-2(3H)-one] |
| 9.00 to 11.00 | 0.3 to 30 | Cn1ccn(-c2ccc(-c3cc(F)cc(-c4ccnc(N5CCC(C)(N)C5)c4)c3O)cc2Cl)c1=O (stereo not drawn) [Example 686, 1-(3′-(2-(3-amino-3-methylpyrrolidin-1-yl)pyridin-4-yl)-3-chloro-5′-fluoro-2′-hydroxy-[1,1′-biphenyl]-4-yl)-3-methyl-1H-imidazol-2(3H)-one] |
| 9.00 to 11.00 | 0.3 to 30 | Cn1cc(-c2cc(F)cc(-c3ccc(-n4ccn(C)c4=O)c(Cl)c3)c2O)cc(N2CCC3(CCCN3)C2)c1=O (stereo not drawn) [Example 687, 5-(3′-chloro-5-fluoro-2-hydroxy-4′-(3-methyl-2-oxo-2,3-dihydro-1H-imidazol-1-yl)-[1,1′-biphenyl]-3-yl)-1-methyl-3-(1,7-diazaspiro[4.4]nonan-7-yl)pyridin-2(1H)-one] |
| 9.00 to 11.00 | 0.3 to 30 | Cn1ccn(-c2ccc(-c3cc(F)cc(-c4ccnc(N5CCCC6(CCN6)C5)c4)c3O)cc2Cl)c1=O (stereo not drawn) [Example 688, 1-(3′-(2-(1,6-diazaspiro[3.5]nonan-6-yl)pyridin-4-yl)-3-chloro-5′-fluoro-2′-hydroxy-[1,1′-biphenyl]-4-yl)-3-methyl-1H-imidazol-2(3H)-one] |
| 9.00 to 11.00 | 0.3 to 30 | C[C@@H]1CN(c2cc(-c3cc(F)cc(-c4ccc(-n5ccn(C)c5=O)c(Cl)c4)c3O)cc(=O)n2C)CCN1 [Example 689, (R)-4-(3′-chloro-5-fluoro-2-hydroxy-4′-(3-methyl-2-oxo-2,3-dihydro-1H-imidazol-1-yl)-[1,1′-biphenyl]-3-yl)-1-methyl-6-(3-methylpiperazin-1-yl)pyridin-2(1H)-one] |
| 9.00 to 11.00 | 30 to 300 | Cn1ccn(-c2ccc(-c3cc(F)cc(-c4ccnc(N5CC[S+]([O-])CC5)c4)c3O)cc2Cl)c1=O [Example 690, 1-(3-chloro-5′-fluoro-2′-hydroxy-3′-(2-(1-oxidothiomorpholino)pyridin-4-yl)-[1,1′-biphenyl]-4-yl)-3-methyl-1H-imidazol-2(3H)-one] |
| 9.00 to 11.00 | 30 to 300 | CO[C@H]1CCN(c2cc(-c3cc(F)cc(-c4ccc(-n5ccn(C)c5=O)c(Cl)c4)c3O)ccn2)C1 [Example 691, (S)-1-(3-chloro-5′-fluoro-2′-hydroxy-3′-(2-(3-methoxypyrrolidin-1-yl)pyridin-4-yl)-[1,1′-biphenyl]-4-yl)-3-methyl-1H-imidazol-2(3H)-one] |
| 9.00 to 11.00 | 0.3 to 30 | Cn1ccn(-c2ccc(-c3cc(F)cc(-c4cncc(N5CCC6(CCCN6)C5)c4)c3O)cc2Cl)c1=O (stereo not drawn) [Example 692, 1-(3′-(5-(1,7-diazaspiro[4.4]nonan-7-yl)pyridin-3-yl)-3-chloro-5′-fluoro-2′-hydroxy-[1,1′-biphenyl]-4-yl)-3-methyl-1H-imidazol-2(3H)-one] |
| 9.00 to 11.00 | 0.3 to 30 | CN1CCC12CCCN(c1cc(-c3cc(F)cc(-c4ccc(-n5ccn(C)c5=O)c(Cl)c4)c3O)ccn1)C2 (stereo not drawn) [Example 693, 1-(3-chloro-5′-fluoro-2′-hydroxy-3′-(2-(1-methyl-1,6-diazaspiro[3.5]nonan-6-yl)pyridin-4-yl)-[1,1′-biphenyl]-4-yl)-3-methyl-1H-imidazol-2(3H)-one] |
